Assay results reported in PMC6501426 (Clinical Epigenetics, 2019).

Experiments:
Assay in all cases: Kinase panel (Cerep)
Format in all cases: biochemical
RAF-1 kinase (h) = molecular target: T1, RAF-1 kinase (h) (Homo sapiens, UniProt P04049); conditions: read-out: % inhibition at 10 µM by MC3353, RAF-1 kinase (h), ATP 10 μM
T1 construct: purchased Eurofins Cerep
Experimental: (§1) The test compound, reference compound or water (control) were mixed with the enzyme (for the exact amount see table below) in the appropriate buffer. Thereafter, the reaction was initiated by adding the required amount of the appropriate substrate and of ATP, and the mixture is incubated at room temperature (variable reaction time, see table below). For control basal measurements, the enzyme was omitted from the reaction mixture. Following incubation, the reaction was stopped by adding 13 mM EDTA. After 5 min, the proper antibody labelled with europium chelate was added. After 60 more min, the fluorescence transfer was measured at λex=337 nm, λem=620 nm and λem=665 nm using a microplate reader (Envision, Perkin Elmer). The enzyme activity was determined by dividing the signal measured at 665 nm by that measured at 620 nm (ratio). The results are expressed as a percent inhibition of the control enzyme activity.

NEK2 (h) = molecular target: T2, NEK2 (h) (Homo sapiens, UniProt P51955); conditions: read-out: % inhibition at 10 µM by MC3353, NEK2 (h), ATP 10 μM
T2 construct: purchased Eurofins Cerep
T2 sequence (P51955 whole entry): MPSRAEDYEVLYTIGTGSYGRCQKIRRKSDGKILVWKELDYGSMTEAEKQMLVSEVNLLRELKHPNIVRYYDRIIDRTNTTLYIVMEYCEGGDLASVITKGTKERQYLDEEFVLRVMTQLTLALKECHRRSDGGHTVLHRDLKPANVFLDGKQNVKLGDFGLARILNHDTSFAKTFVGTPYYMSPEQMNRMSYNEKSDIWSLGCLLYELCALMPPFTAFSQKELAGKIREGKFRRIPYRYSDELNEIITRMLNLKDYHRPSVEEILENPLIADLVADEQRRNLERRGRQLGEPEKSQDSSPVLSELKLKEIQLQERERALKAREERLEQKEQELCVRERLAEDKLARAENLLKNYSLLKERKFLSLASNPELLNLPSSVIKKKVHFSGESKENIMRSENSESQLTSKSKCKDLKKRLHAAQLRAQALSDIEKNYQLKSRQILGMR
Experimental: as §1

JNK1 (h) = molecular target: T3, JNK1 (h) (Homo sapiens, UniProt P45983); conditions: read-out: % inhibition at 10 µM by MC3353, JNK1 (h), ATP 10 μM
T3 construct: purchased Eurofins Cerep
T3 sequence (P45983 whole entry): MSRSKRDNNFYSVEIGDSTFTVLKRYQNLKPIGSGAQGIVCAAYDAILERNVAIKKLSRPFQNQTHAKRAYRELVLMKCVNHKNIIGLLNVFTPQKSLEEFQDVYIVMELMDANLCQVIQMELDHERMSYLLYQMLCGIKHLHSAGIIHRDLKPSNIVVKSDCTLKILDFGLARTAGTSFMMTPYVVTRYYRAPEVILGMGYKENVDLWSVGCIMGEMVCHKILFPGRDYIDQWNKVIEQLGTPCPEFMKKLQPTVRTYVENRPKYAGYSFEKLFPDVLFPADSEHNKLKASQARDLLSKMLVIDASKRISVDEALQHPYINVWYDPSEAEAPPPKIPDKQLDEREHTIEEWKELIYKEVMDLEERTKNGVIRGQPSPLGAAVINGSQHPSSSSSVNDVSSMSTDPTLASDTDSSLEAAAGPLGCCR
Experimental: as §1

SGK1 (h) = molecular target: T4, SGK1 (h) (Homo sapiens, UniProt O00141); conditions: read-out: % inhibition at 10 µM by MC3353, SGK1 (h), ATP 10 μM
T4 construct: purchased Eurofins Cerep
Experimental: as §1

PAK4 (h) = molecular target: T5, PAK4 (h) (Homo sapiens, UniProt O96013); conditions: read-out: % inhibition at 10 µM by MC3353, PAK4 (h), ATP 1 μM
T5 construct: purchased Eurofins Cerep
Experimental: as §1

SIK (h) = molecular target: T6, SIK (h) (Homo sapiens, UniProt P57059); conditions: read-out: % inhibition at 10 µM by MC3353, SIK (h), ATP 30 μM
T6 construct: purchased Eurofins Cerep
T6 sequence (P57059 whole entry): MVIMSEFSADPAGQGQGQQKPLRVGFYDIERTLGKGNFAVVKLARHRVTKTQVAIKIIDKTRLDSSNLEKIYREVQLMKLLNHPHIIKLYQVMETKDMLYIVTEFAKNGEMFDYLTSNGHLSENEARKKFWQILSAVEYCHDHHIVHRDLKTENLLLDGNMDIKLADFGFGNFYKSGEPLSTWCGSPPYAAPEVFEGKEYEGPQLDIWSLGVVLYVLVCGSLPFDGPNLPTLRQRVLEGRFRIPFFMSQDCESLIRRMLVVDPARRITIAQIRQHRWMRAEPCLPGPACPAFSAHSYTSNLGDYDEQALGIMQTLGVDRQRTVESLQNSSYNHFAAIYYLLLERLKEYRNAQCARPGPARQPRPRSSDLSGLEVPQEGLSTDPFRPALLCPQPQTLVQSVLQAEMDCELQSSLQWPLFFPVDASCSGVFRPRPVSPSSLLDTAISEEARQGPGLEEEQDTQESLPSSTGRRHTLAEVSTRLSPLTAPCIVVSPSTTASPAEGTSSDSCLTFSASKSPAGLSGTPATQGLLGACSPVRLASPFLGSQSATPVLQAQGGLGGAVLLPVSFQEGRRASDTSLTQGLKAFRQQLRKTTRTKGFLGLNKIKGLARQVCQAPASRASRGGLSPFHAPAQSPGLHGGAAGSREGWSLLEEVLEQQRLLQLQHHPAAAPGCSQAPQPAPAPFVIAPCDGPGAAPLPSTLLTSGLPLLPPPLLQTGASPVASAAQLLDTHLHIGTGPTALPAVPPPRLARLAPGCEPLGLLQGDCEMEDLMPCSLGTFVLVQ
Experimental: as §1

c-Met kinase (h) = molecular target: T7, c-Met kinase (h) (Homo sapiens, UniProt P08581); conditions: read-out: % inhibition at 10 µM by MC3353, c-Met kinase (h), ATP 10 μM
T7 construct: purchased Eurofins Cerep
T7 sequence (P08581 25-1390): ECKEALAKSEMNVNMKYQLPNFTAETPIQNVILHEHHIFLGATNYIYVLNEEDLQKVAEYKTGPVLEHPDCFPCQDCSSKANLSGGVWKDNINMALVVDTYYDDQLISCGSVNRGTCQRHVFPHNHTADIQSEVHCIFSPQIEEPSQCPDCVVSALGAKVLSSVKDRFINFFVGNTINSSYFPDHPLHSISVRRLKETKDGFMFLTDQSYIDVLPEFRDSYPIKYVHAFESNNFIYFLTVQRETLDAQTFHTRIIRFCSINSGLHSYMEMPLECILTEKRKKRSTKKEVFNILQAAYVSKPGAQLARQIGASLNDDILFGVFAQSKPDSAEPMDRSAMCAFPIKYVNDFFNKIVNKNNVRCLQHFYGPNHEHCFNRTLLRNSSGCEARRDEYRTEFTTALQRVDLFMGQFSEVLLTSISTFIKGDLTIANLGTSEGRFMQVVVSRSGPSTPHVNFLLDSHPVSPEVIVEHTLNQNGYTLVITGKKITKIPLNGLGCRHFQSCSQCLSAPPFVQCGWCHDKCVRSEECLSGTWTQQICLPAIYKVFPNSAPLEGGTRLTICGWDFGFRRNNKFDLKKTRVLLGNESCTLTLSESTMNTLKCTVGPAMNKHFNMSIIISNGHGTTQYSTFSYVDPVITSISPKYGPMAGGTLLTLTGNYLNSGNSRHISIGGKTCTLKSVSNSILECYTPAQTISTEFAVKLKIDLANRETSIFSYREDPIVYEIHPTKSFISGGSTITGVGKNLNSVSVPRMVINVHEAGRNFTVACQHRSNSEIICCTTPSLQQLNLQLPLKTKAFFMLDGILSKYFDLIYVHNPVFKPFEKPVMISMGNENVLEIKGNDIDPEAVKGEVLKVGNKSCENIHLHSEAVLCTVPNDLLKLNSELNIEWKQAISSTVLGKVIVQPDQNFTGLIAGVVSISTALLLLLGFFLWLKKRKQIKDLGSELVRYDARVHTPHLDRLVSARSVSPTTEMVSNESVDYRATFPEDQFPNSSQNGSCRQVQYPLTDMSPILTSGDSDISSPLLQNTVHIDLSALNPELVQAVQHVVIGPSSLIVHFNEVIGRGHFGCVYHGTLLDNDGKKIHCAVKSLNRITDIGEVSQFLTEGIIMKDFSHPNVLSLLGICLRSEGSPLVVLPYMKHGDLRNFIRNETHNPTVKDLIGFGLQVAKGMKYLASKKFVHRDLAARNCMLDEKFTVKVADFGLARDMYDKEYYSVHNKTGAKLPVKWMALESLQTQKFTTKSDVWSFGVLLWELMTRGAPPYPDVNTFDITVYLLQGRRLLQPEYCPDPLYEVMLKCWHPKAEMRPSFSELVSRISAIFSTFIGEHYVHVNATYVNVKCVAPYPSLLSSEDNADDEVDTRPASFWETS
Experimental: as §1

EGFR kinase (h) = molecular target: T8, EGFR kinase (h) (Homo sapiens, UniProt P00533); conditions: read-out: % inhibition at 10 µM by MC3353, EGFR kinase (h), ATP 10 μM
T8 construct: purchased Eurofins Cerep
Experimental: as §1

CHK2 (h) = molecular target: T9, CHK2 (h) (Homo sapiens, UniProt O96017); conditions: read-out: % inhibition at 10 µM by MC3353, CHK2 (h), ATP 30 μM
T9 construct: purchased Eurofins Cerep
Experimental: as §1

PAK2 (h) = molecular target: T10, PAK2 (h) (Homo sapiens, UniProt Q13177); conditions: read-out: % inhibition at 10 µM by MC3353, PAK2 (h), ATP 50 μM
T10 construct: purchased Eurofins Cerep
Experimental: as §1

CHK1 (h) = molecular target: T11, CHK1 (h) (Homo sapiens, UniProt O14757); conditions: read-out: % inhibition at 10 µM by MC3353, CHK1 (h), ATP 30 μM
T11 construct: purchased Eurofins Cerep
T11 sequence (O14757 whole entry): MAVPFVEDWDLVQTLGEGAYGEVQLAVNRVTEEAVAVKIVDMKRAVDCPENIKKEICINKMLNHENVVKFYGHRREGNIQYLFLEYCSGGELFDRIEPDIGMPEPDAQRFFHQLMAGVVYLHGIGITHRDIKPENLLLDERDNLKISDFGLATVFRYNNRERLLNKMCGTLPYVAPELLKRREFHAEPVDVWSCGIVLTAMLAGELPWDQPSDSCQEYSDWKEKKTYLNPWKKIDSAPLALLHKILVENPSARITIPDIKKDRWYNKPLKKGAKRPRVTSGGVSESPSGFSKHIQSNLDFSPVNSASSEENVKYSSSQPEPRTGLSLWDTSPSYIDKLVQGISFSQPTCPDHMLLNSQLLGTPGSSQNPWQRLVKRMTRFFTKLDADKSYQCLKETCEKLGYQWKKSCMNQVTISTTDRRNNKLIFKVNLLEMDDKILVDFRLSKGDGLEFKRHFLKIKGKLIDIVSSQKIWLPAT
Experimental: as §1

PKCbeta 2 (h) = molecular target: T12, PKCbeta 2 (h) (Homo sapiens, UniProt P05771); conditions: read-out: % inhibition at 10 µM by MC3353, PKCbeta 2 (h), ATP 30 μM
T12 construct: purchased Eurofins Cerep
Experimental: as §1

Lck kinase (h) = molecular target: T13, Lck kinase (h) (Homo sapiens, UniProt P06239); conditions: read-out: % inhibition at 10 µM by MC3353, Lck kinase (h), ATP 10 μM
T13 construct: purchased Eurofins Cerep
Experimental: as §1

FGFR3 kinase (h) = molecular target: T14, FGFR3 kinase (h) (Homo sapiens, UniProt P22607); conditions: read-out: % inhibition at 10 µM by MC3353, FGFR3 kinase (h), ATP 10 μM
T14 construct: purchased Eurofins Cerep
Experimental: as §1

ROCK1 (h) = molecular target: T15, ROCK1 (h) (Homo sapiens, UniProt Q13464); conditions: read-out: % inhibition at 10 µM by MC3353, ROCK1 (h), ATP 1 μM
T15 construct: purchased Eurofins Cerep
Experimental: as §1

ERK2 (h) (P42mapk) = molecular target: T16, ERK2 (h) (P42mapk) (Homo sapiens, UniProt P28482); conditions: read-out: % inhibition at 10 µM by MC3353, ERK2 (h) (P42mapk), ATP 10 μM
T16 construct: purchased Eurofins Cerep
Experimental: as §1

Pim2 kinase (h) = molecular target: T17, Pim2 kinase (h) (Homo sapiens, UniProt Q9P1W9); conditions: read-out: % inhibition at 10 µM by MC3353, Pim2 kinase (h), ATP 3 μM
T17 construct: purchased Eurofins Cerep
Experimental: as §1

IKKalpha (h) = molecular target: T18, IKKalpha (h) (Homo sapiens, UniProt O15111); conditions: read-out: % inhibition at 10 µM by MC3353, IKKalpha (h), ATP 5 μM
T18 construct: purchased Eurofins Cerep
T18 sequence (O15111 whole entry): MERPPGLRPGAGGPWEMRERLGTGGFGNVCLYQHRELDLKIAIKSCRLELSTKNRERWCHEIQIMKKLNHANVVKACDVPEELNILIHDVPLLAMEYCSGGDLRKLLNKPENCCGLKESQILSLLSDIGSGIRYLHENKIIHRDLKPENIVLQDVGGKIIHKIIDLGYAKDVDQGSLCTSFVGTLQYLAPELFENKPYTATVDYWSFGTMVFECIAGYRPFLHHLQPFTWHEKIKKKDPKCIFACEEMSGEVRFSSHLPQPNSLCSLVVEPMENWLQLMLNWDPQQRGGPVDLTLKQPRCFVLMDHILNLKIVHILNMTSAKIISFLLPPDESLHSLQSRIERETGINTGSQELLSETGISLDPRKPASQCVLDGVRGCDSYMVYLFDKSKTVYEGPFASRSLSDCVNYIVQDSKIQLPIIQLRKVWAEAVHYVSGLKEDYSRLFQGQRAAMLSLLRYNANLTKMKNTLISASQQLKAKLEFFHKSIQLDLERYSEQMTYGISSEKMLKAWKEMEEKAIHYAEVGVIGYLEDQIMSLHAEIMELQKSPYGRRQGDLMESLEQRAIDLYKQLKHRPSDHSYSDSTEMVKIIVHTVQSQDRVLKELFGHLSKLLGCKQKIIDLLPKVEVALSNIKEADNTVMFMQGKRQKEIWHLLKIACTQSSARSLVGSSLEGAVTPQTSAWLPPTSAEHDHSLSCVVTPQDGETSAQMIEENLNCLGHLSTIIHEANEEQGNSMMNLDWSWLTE
Experimental: as §1

FGFR1 kinase (h) = molecular target: T19, FGFR1 kinase (h) (Homo sapiens, UniProt P11362); conditions: read-out: % inhibition at 10 µM by MC3353, FGFR1 kinase (h), ATP 100 μM
T19 construct: purchased Eurofins Cerep
Experimental: as §1

TRKA (h) = molecular target: T20, TRKA (h) (Homo sapiens, UniProt P04629); conditions: read-out: % inhibition at 10 µM by MC3353, TRKA (h), ATP 100 μM
T20 construct: purchased Eurofins Cerep
T20 sequence (P04629 33-796): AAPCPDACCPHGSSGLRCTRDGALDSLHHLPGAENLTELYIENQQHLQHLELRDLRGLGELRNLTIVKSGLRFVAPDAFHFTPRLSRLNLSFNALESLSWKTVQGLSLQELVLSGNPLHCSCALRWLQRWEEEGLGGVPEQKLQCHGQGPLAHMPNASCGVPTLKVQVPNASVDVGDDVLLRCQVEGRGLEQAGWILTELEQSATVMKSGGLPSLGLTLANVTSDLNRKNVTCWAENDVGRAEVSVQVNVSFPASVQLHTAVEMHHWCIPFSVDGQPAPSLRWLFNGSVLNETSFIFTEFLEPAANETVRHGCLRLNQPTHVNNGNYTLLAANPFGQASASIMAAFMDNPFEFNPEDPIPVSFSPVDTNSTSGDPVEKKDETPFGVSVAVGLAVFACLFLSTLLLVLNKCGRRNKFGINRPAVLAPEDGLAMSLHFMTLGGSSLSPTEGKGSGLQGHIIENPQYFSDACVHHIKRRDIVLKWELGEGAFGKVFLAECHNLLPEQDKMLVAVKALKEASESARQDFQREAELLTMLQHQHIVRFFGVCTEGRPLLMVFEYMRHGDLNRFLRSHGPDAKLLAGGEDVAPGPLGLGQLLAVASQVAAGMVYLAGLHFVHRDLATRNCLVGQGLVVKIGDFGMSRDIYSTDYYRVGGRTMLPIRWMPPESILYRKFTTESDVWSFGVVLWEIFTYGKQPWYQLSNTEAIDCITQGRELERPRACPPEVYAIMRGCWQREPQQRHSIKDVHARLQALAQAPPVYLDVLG
Experimental: as §1

PKA (h) = molecular target: T21, PKA (h) (Homo sapiens, UniProt P17612); conditions: read-out: % inhibition at 10 µM by MC3353, PKA (h), ATP 1 μM
T21 construct: purchased Eurofins Cerep
Experimental: as §1

FGFR2 kinase (h) = molecular target: T22, FGFR2 kinase (h) (Homo sapiens, UniProt P21802); conditions: read-out: % inhibition at 10 µM by MC3353, FGFR2 kinase (h), ATP 10 μM
T22 construct: purchased Eurofins Cerep
Experimental: as §1

IRK (h) (InsR) = molecular target: T23, IRK (h) (InsR) (Homo sapiens, UniProt P06213); conditions: read-out: % inhibition at 10 µM by MC3353, IRK (h) (InsR), ATP 30 μM
T23 construct: purchased Eurofins Cerep
Experimental: as §1

**Q.** Which inhibition at 10 µM (RAF-1 kinase (h)) does the source give for `O=C(Nc1ccc(NC(=O)c2ccc(Nc3ccnc4ccccc34)cc2)cc1)OCc1ccccc1` [MC3353, Benzyl (4-(4-(quinolin-4-ylamino)benzamido)phenyl)carbamate] here?
**A.** 60%

**Q.** And the inhibition at 10 µM (NEK2 (h))?
**A.** -9%

**Q.** What about the inhibition at 10 µM (JNK1 (h)) of the same compound?
**A.** -32%

**Q.** And the inhibition at 10 µM (SGK1 (h))?
**A.** 29%

**Q.** What about the inhibition at 10 µM (PAK4 (h)) of the same compound?
**A.** -4%

**Q.** What about the inhibition at 10 µM (SIK (h)) of the same compound?
**A.** 33%

**Q.** What about the inhibition at 10 µM (c-Met kinase (h)) of the same compound?
**A.** -116%

**Q.** And the inhibition at 10 µM (EGFR kinase (h))?
**A.** 5%

**Q.** And the inhibition at 10 µM (CHK2 (h))?
**A.** -30%

**Q.** What about the inhibition at 10 µM (PAK2 (h)) of the same compound?
**A.** -135%

**Q.** And the inhibition at 10 µM (CHK1 (h))?
**A.** 7%

**Q.** And the inhibition at 10 µM (PKCbeta 2 (h))?
**A.** 11%

**Q.** And the inhibition at 10 µM (Lck kinase (h))?
**A.** 4%

**Q.** What about the inhibition at 10 µM (FGFR3 kinase (h)) of the same compound?
**A.** -169%

**Q.** What about the inhibition at 10 µM (ROCK1 (h)) of the same compound?
**A.** -51%

**Q.** What about the inhibition at 10 µM (ERK2 (h) (P42mapk)) of the same compound?
**A.** -21%

**Q.** And the inhibition at 10 µM (Pim2 kinase (h))?
**A.** 20%

**Q.** And the inhibition at 10 µM (IKKalpha (h))?
**A.** 18%

**Q.** What about the inhibition at 10 µM (FGFR1 kinase (h)) of the same compound?
**A.** -200%

**Q.** And the inhibition at 10 µM (TRKA (h))?
**A.** 67%

**Q.** And the inhibition at 10 µM (PKA (h))?
**A.** 27%

**Q.** And the inhibition at 10 µM (FGFR2 kinase (h))?
**A.** 19%

**Q.** And the inhibition at 10 µM (IRK (h) (InsR))?
**A.** 38%
